Assays:
[1] = Compound cytotoxicity, XTT-based colorimetric assay; type: cell-based; details: human, uninfected MT2 cells
Method: Compound cytotoxicity and the corresponding CC50 values were determined using the same protocol as described in the antiviral assay except that uninfected cells were used. Cytotoxicity was assessed on day 4 in uninfected MT2 cells by using a XTT (2,3-bis[2-Methoxy-4-nitro-5-sulfophenyl]-2H-tetrazolium-5-carboxyanilide inner salt)-based colorimetric assay (Sigma-Aldrich, St Louis, Mo.). Biological data for select compounds of the invention are contained in Table 1 and Table 1a

[2] = system: recombinant NL4-3 virus (nef section replaced with Renilla luciferase gene) in MT-2 cells; assay: HIV cell culture assay (antiviral activity, luciferase readout); type: cell-based; details: MT-2 cells infected for 4-5 days with recombinant NL4-3 luciferase virus
Method: HIV cell culture assay—MT-2 cells, 293T cells and the proviral DNA clone of NL4-3 virus were obtained from the NIH AIDS Research and Reference Reagent Program. MT-2 cells were propagated in RPMI 1640 media supplemented with 10% heat inactivated fetal bovine serum (FBS), 100 μg/ml penicillin G and up to 100 units/mL streptomycin. The 293T cells were propagated in DMEM media supplemented with 10% heat inactivated FBS, 100 μg/mL penicillin G and 100 μg/mL streptomycin. A recombinant NL4-3 proviral clone, in which a section of the nef gene was replaced with the Renilla luciferase gene, was used to make the reference virus used in these studies. The recombinant virus was prepared through transfection of the recombinant NL4-3 proviral clone into 293T cells using Transit-293 Transfection Reagent from Mirus Bio LLC (Madison, Wis.). Supernatent was harvested after 2-3 days and the amount of virus present was titered in MT-2 cells using luciferase enzyme activity as a marker by measuring luciferase enzyme activity. Luciferase was quantitated using the EnduRen Live Cell Substrate from Promega (Madison, Wis.). Antiviral activities of compounds toward the recombinant virus were quantified by measuring luciferase activity in MT-2 cells infected for 4-5 days with the recombinant virus in the presence of serial dilutions of the compound.
The 50% effective concentration (ECs) was calculated by using the exponential form of the median effect equation where (Fa)=1/[1+(ED50/drug conc.)^m] (Johnson Va., Byington RT. Infectivity Assay. In Techniques in HIV Research. ed. Aldovini A, Walker BD. 71-76. New York: Stockton Press. 1990).

SMILES | CC50 at 4 days ([1]; Table 1, day 4, XTT) [nM] | EC50 ([2]; Renilla, NL43, Table 1) [nM] | CC50 at 4 days ([1]; Table 1a, day 4, XTT) [nM] | further results
Cn1nc(NS(C)(=O)=O)c2c(Cl)ccc(-n3c(C(Cc4cc(F)cc(F)c4)NC(=O)Cn4nc(C(F)F)c5c4C(F)(F)[C@@H]4C[C@H]54)nc4cccc(Cl)c4c3=O)c21 (mixture of isomers) [Example 22.1, N—((S)-1-(5-chloro-3-(4-chloro-1-methyl-3-(methylsulfonamido)-1H-indazol-7-yl)-4-oxo-3,4-dihydroquinazolin-2-yl)-2-(3,5-difluorophenyl)ethyl)-2-((3bS,4aR)-3-(difluoromethyl)-5,5-difluoro-3b,4,4a,5-tetrahydro-1H-cyclopropa[3,4]cyclopenta[1,2-c]pyrazol-1-yl)acetamide] | > 1000 | 31600 |  | 
Cn1nc(NS(C)(=O)=O)c2c(Cl)ccc(-n3c([C@H](Cc4cc(F)cc(F)c4)NC(=O)Cn4nc(C(F)F)c5c4C(F)(F)[C@@H]4C[C@H]54)nc4ccccc4c3=O)c21 (single isomer, unassigned) [Example 16] | > 10000 | 49 |  | 
COc1ccc2c(=O)n(-c3ccc(Cl)c4c(NS(C)(=O)=O)nn(CC(F)F)c34)c([C@H](Cc3cc(F)cc(F)c3)NC(=O)Cn3ccc(C4CC4)n3)nc2n1 (atropisomer, axis not shown) [Example 55.1, N-[(1S)-1-{3-[4-chloro-1-(2,2-difluoroethyl)-3-methanesulfonamido-1H-indazol-7-yl]-7-methoxy-4-oxo-3H,4H-pyrido[2,3-d]pyrimidin-2-yl}-2-(3,5-difluorophenyl)ethyl]-2-(3-cyclopropyl-1H-pyrazol-1-yl)acetamide] |  |  | > 1000 | EC50 ([2]; Table 1a): 28.5 nM
Cn1nc(NS(C)(=O)=O)c2c(Cl)ccc(-n3c([C@H](Cc4cc(F)cc(F)c4)NC(=O)Cn4ccc(C(F)(F)F)n4)nc4ccc(OC(F)(F)F)cc4c3=O)c21 (single isomer, unassigned) [Example 143] |  |  | > 1000 | EC50 ([2]; Table 1a): 84 nM
O=C(Cn1nc(C(F)F)c2c1C(F)(F)[C@@H]1C[C@H]21)N[C@@H](Cc1cc(F)cc(F)c1)c1nc2cn[nH]c2cc1-c1ccc2c(c1)CNC2=O [Example 10.12, 2-((3bS,4aR)-3-(difluoromethyl)-5,5-difluoro-3b,4,4a,5-tetrahydro-1H-cyclopropa[3,4]cyclopenta[1,2-c]pyrazol-1-yl)-N—((S)-2-(3,5-difluorophenyl)-1-(6-(1-oxoisoindolin-5-yl)-1H-pyrazolo[4,3-b]pyridin-5-yl)ethyl)acetamide] | > 10000 | 95 |  | 
Cn1nc(NS(C)(=O)=O)c2c(Cl)ccc(-n3c([C@H](Cc4cc(F)cc(F)c4)NC(=O)Cn4nc(C(F)F)c5c4C(F)(F)[C@@H]4C[C@H]54)nc4cc(S(C)(=O)=O)ccc4c3=O)c21 (mixture of isomers) [Example 199, N—((S)-1-(3-(4-chloro-1-methyl-3-(methylsulfonamido)-1H-indazol-7-yl)-7-(methylsulfonyl)-4-oxo-3,4-dihydroquinazolin-2-yl)-2-(3,5-difluorophenyl)ethyl)-2-((3bS,4aR)-3-(difluoromethyl)-5,5-difluoro-3b,4,4a,5-tetrahydro-1H-cyclopropa[3,4]cyclopenta[1,2-c]pyrazol-1-yl)acetamide] |  |  | > 1000 | EC50 ([2]; Table 1a): 32.8 nM
COc1ccc(-n2c([C@H](Cc3cc(F)cc(F)c3)NC(=O)Cn3nc(C(F)F)c4c3C(F)(F)[C@@H]3C[C@H]43)nc3ncccc3c2=O)cc1 [Example 9.1, 2-((3bS,4aR)-3-(difluoromethyl)-5,5-difluoro-3b,4,4a,5-tetrahydro-1H-cyclopropa[3,4]cyclopenta[1,2-c]pyrazol-1-yl)-N—((S)-2-(3,5-difluorophenyl)-1-(3-(4-methoxyphenyl)-4-oxo-3,4-dihydropyrido[2,3-d]pyrimidin-2-yl)ethyl)acetamide] | 8100 | 6.1 |  | 
Cn1nc(NS(C)(=O)=O)c2c(Cl)ccc(-n3c([C@H](Cc4cc(F)cc(F)c4)NC(=O)Cn4nc(C(F)F)c5c4C(F)(F)[C@@H]4C[C@H]54)nc4ccc(Cl)c(F)c4c3=O)c21 (single isomer, unassigned) [Example 176] |  |  | > 1000 | EC50 ([2]; Table 1a): 0.19 nM
CN(c1nn(C)c2c(-c3cc4c(ccn4C)nc3[C@H](Cc3cc(F)cc(F)c3)NC(=O)Cn3nc(C(F)F)c4c3C(F)(F)[C@@H]3C[C@H]43)ccc(Cl)c12)S(C)(=O)=O (single isomer, unassigned) [Example 64] |  |  | > 10000 | EC50 ([2]; Renilla, NL43, Table 1a): 4 nM
Cn1nc(NS(C)(=O)=O)c2c(Cl)ccc(-c3cc4ccccc4nc3[C@H](Cc3cc(F)cc(F)c3)NC(=O)Cc3c[nH]c4ccc(O)cc34)c21 [Example 10.17] | > 10000 | 2.4 |  | 
Cn1nc(NS(C)(=O)=O)c2c(Cl)ccc(-n3c([C@H](Cc4cc(F)cc(F)c4)NC(=O)Cn4nc(C(F)F)c5c4C(F)(F)[C@@H]4C[C@H]54)nc4ccc(Cl)c(F)c4c3=O)c21 (mixture of isomers) [Example 175, N—((S)-1-(6-chloro-3-(4-chloro-1-methyl-3-(methylsulfonamido)-1H-indazol-7-yl)-5-fluoro-4-oxo-3,4-dihydroquinazolin-2-yl)-2-(3,5-difluorophenyl)ethyl)-2-((3bS,4aR)-3-(difluoromethyl)-5,5-difluoro-3b,4,4a,5-tetrahydro-1H-cyclopropa[3,4]cyclopenta[1,2-c]pyrazol-1-yl)acetamide] |  |  | > 1000 | EC50 ([2]; Renilla, NL43, Table 1a): 10.9 nM
Cn1nc(NS(C)(=O)=O)c2c(Cl)ccc(-n3c([C@H](Cc4cc(F)cc(F)c4)NC(=O)Cc4c[nH]c5ccc(O)cc45)nc4ncccc4c3=O)c21 [Example 53, N-[(1S)-1-[3-(4-chloro-3-methanesulfonamido-1-methyl-1H-indazol-7-yl)-4-oxo-3H,4H-pyrido[2,3-d]pyrimidin-2-yl]-2-(3,5-difluorophenyl)ethyl]-2-(5-hydroxy-1H-indol-3-yl)acetamide] |  |  | > 1000 | EC50 ([2]; Renilla, NL43, Table 1a): 5.71 nM
Cn1ccc2nc([C@H](Cc3cc(F)cc(F)c3)NC(=O)Cn3nc(C(F)F)c4c3C(F)(F)[C@@H]3C[C@H]43)c(-c3ccc(Cl)c4c(NS(C)(=O)=O)nn(C)c34)cc21 (single isomer, unassigned) [Example 119] |  |  | > 10000 | EC50 ([2]; Renilla, NL43, Table 1a): 0.0924 nM
COc1cc(F)c2c(=O)n(-c3ccc(Cl)c4c(NS(C)(=O)=O)nn(C)c34)c([C@H](Cc3cc(F)cc(F)c3)NC(=O)Cn3nc(C(F)F)c4c3C(F)(F)[C@@H]3C[C@H]43)nc2c1 (single isomer, unassigned) [Example 186] |  |  | > 1000 | EC50 ([2]; Table 1a): 0.072 nM
Cn1nc(NS(C)(=O)=O)c2c(Cl)ccc(-c3cc4[nH]cnc4nc3C(Cc3cc(F)cc(F)c3)NC(=O)Cn3nc(C(F)F)c4c3C(F)(F)[C@@H]3C[C@H]43)c21 (single isomer, unassigned) [Example 4.1] | > 10000 |  |  | EC50 ([2]; Table 1): 230 nM
Cn1nc(NS(C)(=O)=O)c2c(Cl)ccc(-n3c([C@H](Cc4cc(F)cc(F)c4)NC(=O)Cn4nc(C(F)F)c5c4C(F)(F)[C@@H]4C[C@H]54)nc4cc(C#N)ccc4c3=O)c21 (mixture of isomers) [Example 166, N—((S)-1-(3-(4-chloro-1-methyl-3-(methylsulfonamido)-1H-indazol-7-yl)-7-cyano-4-oxo-3,4-dihydroquinazolin-2-yl)-2-(3,5-difluorophenyl)ethyl)-2-((3bS,4aR)-3-(difluoromethyl)-5,5-difluoro-3b,4,4a,5-tetrahydro-1H-cyclopropa[3,4]cyclopenta[1,2-c]pyrazol-1-yl)acetamide] |  |  | > 1000 | EC50 ([2]; Renilla, NL43, Table 1a): 26 nM
O=C(Cn1nc(C(F)F)c2c1C(F)(F)[C@@H]1C[C@H]21)N[C@@H](Cc1cc(F)cc(F)c1)c1nc2cn[nH]c2cc1-c1ccc(Cl)c(C(=O)NS(=O)(=O)C2CC2)c1 [Example 10.16, 2-Chloro-N-(cyclopropylsulfonyl)-5-(5-((S)-1-(2-((3bS,4aR)-3-(difluoromethyl)-5,5-difluoro-3b,4,4a,5-tetrahydro-1H-cyclopropa[3,4]cyclopenta[1,2-c]pyrazol-1-yl)acetamido)-2-(3,5-difluorophenyl)ethyl)-1H-pyrazolo[4,3-b]pyridin-6-yl)benzamide] | > 10000 | 340 |  | 

Reference: US10954252B1, “Inhibitors of human immunodeficiency virus replication” (ViiV HEALTHCARE UK (NO.5) LIMITED, priority 2017, dated 2021)
